# Measured values taken from patent US20220227763A1, “MICROBIOCIDAL DERIVATIVES” (SYNGENTA CROP PROTECTION AG, priority 2019, published 2022).
# Columns and labels:
# [1] = system: Mycosphaerella graminicola (Septoria tritici); experiment: Mycosphaerella graminicola (Septoria tritici) / liquid culture (Septoria blotch); assay type: cell-based; details: Zymoseptoria tritici, growth inhibition determined photometrically 4-5 days after application, compared to untreated control
# Experimental: Example B5: Mycosphaerella graminicola (Septoria tritici)/Liquid Culture (Septoria blotch) Conidia of the fungus from cryogenic storage are directly mixed into nutrient broth (PDB potato dextrose broth). After placing a (DMSO) solution of test compound into a microtiter plate (96-well format), the nutrient broth containing the fungal spores is added. The test plates are incubated at 24° C. and the inhibition of growth is determined photometrically 4-5 days after application. […] […]-19.
Structure (SMILES),melting point [°C],inhibition of growth at 20 ppm [1] [%]
"CC1(C)CCC1NC(=O)c1nc(Nc2cc(F)cc(F)c2)cc2cc[nH]c12 (stereo not shown) [Compound P-1, 5-(3,5-difluoroanilino)-N-(2,2-dimethylcyclobutyl)-1H-pyrrolo[2,3-c]pyridine-7-carboxamide]",65 to 89,≥ 80
"O=C(NC1CCC12CCCC2)c1nc(Nc2cc(F)nc(F)c2)cc2cc[nH]c12 (stereo not shown) [Compound P-18, 5-[(2,6-difluoro-4-pyridyl)amino]-N-spiro[3.4]octan-3-yl-1H-pyrrolo[2,3-c]pyridine-7-carboxamide]",170 to 178,≥ 80
"CCCCCNC(=O)c1nc(Nc2cncc(F)c2)cc2cn[nH]c12 [Compound P-13, 5-[(5-fluoro-3-pyridyl)amino]-N-pentyl-1H-pyrazolo[3,4-c]pyridine-7-carboxamide]",155 to 168,
"O=C(NC1CCC12CCCC2)c1nc(Nc2cncc(F)c2)cc2cc[nH]c12 (stereo not shown) [Compound P-17, 5-[(5-fluoro-3-pyridyl)amino]-N-spiro[3.4]octan-3-yl-1H-pyrrolo[2,3-c]pyridine-7-carboxamide]",180 to 191,
"O=C(NC1CCC12CCCC2)c1nc(Nc2cc(F)nc(F)c2)cc2cn[nH]c12 (stereo not shown) [Compound P-19, 5-[(2,6-difluoro-4-pyridyl)amino]-N-spiro[3.4]octan-3-yl-1H-pyrazolo[3,4-c]pyridine-7-carboxamide]",168 to 180,≥ 80
"CCCCCNC(=O)c1nc(Nc2cc(F)nc(F)c2)cc2cc[nH]c12 [Compound P-11, 5-[(2,6-difluoro-4-pyridyl)amino]-N-pentyl-1H-pyrrolo[2,3-c]pyridine-7-carboxamide]",220 to 233,
"CC1(C)CCC1NC(=O)c1nc(Nc2cc(F)nc(F)c2)cc2cc[nH]c12 (stereo not shown) [Compound P-2, 5-[(2,6-difluoro-4-pyridyl)amino]-N-(2,2-dimethylcyclobutyl)-1H-pyrrolo[2,3-c]pyridine-7-carboxamide]",115 to 148,≥ 80
"CCCCCNC(=O)c1nc(Nc2cncc(F)c2)cc2cc[nH]c12 [Compound P-10, 5-[(5-fluoro-3-pyridyl)amino]-N-pentyl-1H-pyrrolo[2,3-c]pyridine-7-carboxamide]",158 to 162,

# Second part, led by results:
melting point [°C],Structure (SMILES),inhibition of growth at 20 ppm [1] [%]
158 to 166,"Cn1cc(Nc2cc3cn[nH]c3c(C(=O)NC3CCC3(C)C)n2)cn1 (stereo not shown) [Compound P-4, N-(2,2-dimethylcyclobutyl)-5-[(1-methylpyrazol-4-yl)amino]-1H-pyrazolo[3,4-c]pyridine-7-carboxamide]",
222 to 238,"CC1(C)CCC1NC(=O)c1nc(Nc2ccnc(F)c2)cc2cn[nH]c12 (stereo not shown) [Compound P-7, N-(2,2-dimethylcyclobutyl)-5-[(2-fluoro-4-pyridyl)amino]-1H-pyrazolo[3,4-c]pyridine-7-carboxamide]",≥ 80
158 to 166,"CC1(C)CCC1NC(=O)c1nc(Nc2cnsc2)cc2cn[nH]c12 (stereo not shown) [Compound P-5, N-(2,2-dimethylcyclobutyl)-5-(isothiazol-4-ylamino)-1H-pyrazolo[3,4-c]pyridine-7-carboxamide]",≥ 80
240 to 250,"CC1(C)CCC1NC(=O)c1nc(Nc2cc(F)nc(F)c2)cc2cn[nH]c12 (stereo not shown) [Compound P-8, 5-[(2,6-difluoro-4-pyridyl)amino]-N-(2,2-dimethylcyclobutyl)-1H-pyrazolo[3,4-c]pyridine-7-carboxamide]",≥ 80
185 to 195,"O=C(NC1CCC12CCCC2)c1nc(Nc2cncc(F)c2)cc2cn[nH]c12 (stereo not shown) [Compound P-15, 5-[(5-fluoro-3-pyridyl)amino]-N-spiro[3.4]octan-3-yl-1H-pyrazolo[3,4-c]pyridine-7-carboxamide]",
167 to 176,"CC1(C)CCC1NC(=O)c1nc(Nc2cc(F)cc(F)c2)cc2cn[nH]c12 (stereo not shown) [Compound P-6, 5-(3,5-difluoroanilino)-N-(2,2-dimethylcyclobutyl)-1H-pyrazolo[3,4-c]pyridine-7-carboxamide]",≥ 80
